According to patent US9650417B2, “Treatments for gastrointestinal disorders” (Ironwood Pharmaceuticals, Inc., priority 2011, dated 2017):
Bridge positions count the residues as written; N and C are the ends. Square brackets hold non-standard residues; d marks the D form. Peptide text beside a SMILES is read from it. pS = N[C@@H](COP(=O)(O)O)C(=O)O

What was measured:
[1] = In vitro metabolism in mouse jejunum loop fluid; type: in vitro ADME; conditions: for metabolism in control reaction: 120 minute incubation; for degradation rate compared with peptide 2: mouse intestinal fluid
Procedure: The purpose of this study was to determine the stability of phosphorylated peptides in mouse jejunal loop fluid. […] The isotopically labeled peptide 2 was synthesized with ^13C, ^15N-labeled alanine and leucine (i.e., with a sequence CCpS[^13C6, ^15N]LCCNP[^13C6, ^15N]ACTGC).
Each peptide was synthesized by American Peptide Company, Inc., and was stored desiccated at −20° C. A 1 mg/mL solution for each of the non-labeled peptides was prepared in 1 M tris(hydroxymethyl)aminomethane hydrochloride (Tris-HCl), pH 8 just prior to conducting the mouse intestinal loop fluid assay. A 500 ng/mL solution of ^13C, ^15N-labeled peptide 2 was prepared in 0.1% formic acid in water and was utilized to dilute the jejunum samples for post-assay LC-MS/MS analysis.
To collect the fluid, mice were fasted overnight with full access to water. They were then anesthetized with isofluorane for surgery and subjected to laparotomy in which the small intestine was exteriorized. Jejunum loops of 3 to 4 cm in length were made with sutures starting at 7 cm from the pyloric sphincter of the stomach. Once the loops were formed, they were injected with 200 μL of phosphate buffered saline (PBS) buffer (10 mM, pH 7.4). The abdominal wall and skin of the animals were then sutured, and the animals were allowed to recover for 30 minutes. Following recovery, the animals were sacrificed, the loops were then excised and the fluid inside was recovered and stored at −80° C. until use.
For each peptide, 25 μL of the 1 mg/mL peptide stock solution was added to 25 μL of 1 M Tris-HCl and 25 μL of 10× calf intestinal phosphatase (CIP) buffer containing 500 mM Tris-HCl, 1 M sodium chloride (NaCl), 0.1 mM magnesium chloride (MgCl2), pH 8. The reactions were initiated by adding 175 μL of the mouse jejunum loop fluid or 175 μL of the 1 M Tris-HCl pH8 buffer for the control reactions. The final concentration of each peptide was 100 μg/mL. The reactions were continuously mixed and maintained at 37° C. on a plate shaker. At 0, 2, 5, 10, 20, 30, 60, 90 and 120 minutes after adding the mouse intestinal loop fluid, a 25 μL aliquot was taken and added to 25 μL of 4° C. 12% trichloroacetic acid to stop the reaction. An additional 200 μL of 0.1% formic acid in water was added to these reactions for dilution purposes. These samples were then further diluted by taking 20 μL of each sample and adding it to 480 μL of 0.1% formic acid in water containing 500 ng/mL of the internal standard 13C, 15N-labeled peptide 2.
All samples were analyzed using an Applied Biosystems/MDS SCIEX API 4000 triple quadrupole mass spectrometer equipped with a high-performance liquid chromatography (HPLC) system. The mass spectrometer was operated in multiple reaction monitoring (MRM) mode, with resolution set to 1.2 Da.
The LC-MS/MS data were processed using Analyst version 1.4.2 software (Applied Biosystems/MDS SCIEX). The peak area ratio (ratio of analyte peak area to internal standard peak area) was used to calculate the percent remaining of each peptide.

[2] = target: T1, Calf intestinal alkaline phosphatase (CIP) (Bos taurus, UniProt P19111); test: Alkaline phosphatase reaction (dephosphorylation of peptide substrates); type: in vitro ADME; conditions: with and without calf intestinal alkaline phosphatase; data not shown
T1 construct: purchased New England BioLabs, Ipswich, Mass; MO290S
Procedure: For the alkaline phosphatase reactions, peptide stocks were prepared at 1 mg/mL in 0.1 M Tris-HCl pH 8, which were stored at −20° C. until assays were conducted. For the acid phosphatase reactions, peptide stocks were prepared at 1 mg/mL in 50 mM sodium phosphate pH 6, which was stored at −20° C. until assays were conducted.
Calf intestinal alkaline phosphatase (CIP) was obtained from New England BioLabs, Ipswich, Mass. Cat # MO290S. The CIP reaction solution was prepared by dilution with buffer (50 mM KCl, 10 mM Tris-HCl pH 8, 1 mM MgCl2, 50% glycerol) to 0.5 units/μL. The alkaline phosphatase reaction solutions were assembled in 20 μL quantities containing:
2 μL 10×CIP buffer (1M NaCl, 500 mM Tris-HCl pH 8, 100 mM MgCl2)
2 μL peptide stock (1 mg/mL)
4 μL alkaline phosphatase (0, 0.5 or 2 units)
The reaction solutions were mixed gently and incubated for 90 minutes at 37° C. These reaction solutions were stored at −20° C. until analysis. For analysis, the reaction solutions were diluted from 7.5 μL of CIP treated peptide to 50 μL with 0.1% formic acid in water to a final concentration of 10 μM.
Control reactions were assembled for enzyme activity containing 10 mM p-nitrophenylphosphate in place of peptide. After incubation, the reactions were diluted with 0.1 mL of 100 mM borate buffer pH 9 and read at the absorbance of 405 nm to monitor p-nitrophenol appearance.

GC-C = target: T2, GC-C (Homo sapiens, UniProt P25092); test: cGMP accumulation in T84 cells for analysis of GC-C activity; type: cell-based
T2 construct: endogenous in cells; host or cells: T84 cells
Procedure: For the cGMP assay, 4.5×10^5 cells/mL of T84 cells were grown overnight in 24 well tissue culture plates. […] After the second wash, the cells were incubated with 450 μL of 1 mM isobutylmethylxanthine (IBMX) in either the pH 5 or pH 8 buffers for 10 minutes at 37° C. to inhibit any phosphodiesterase activity. The peptides were then diluted in either pH 5 or pH 8 buffer to a 10× concentration. The peptide solution of 50 μL was diluted to a final volume of 500 μL with the T84 cells, bringing each peptide concentration to 1×. An eleven point curve analysis was conducted for each peptide, with final peptide concentrations tested in each assay, in nM: 10000, 3000, 1000, 300, 100, 30, 10, 3, 1, 0.3, 0.1.
There was no peptide control used to determine endogenous levels of cGMP. Peptides were incubated for 30 minutes at 37° C. After 30 minutes, the supernatants were removed and the cells were lysed with 0.1 M HCl. The cells were lysed for 30 minutes on ice. After 30 minutes, lysates were pipetted off and placed into a 96 well HPLC plate and spun at 10,000×g for 10 minutes to remove any cell debris. […]
cGMP concentrations were determined from each sample using the LC/MS conditions in Table 4 and a calculated standard curve. EC50 values were calculated from concentration-response curves generated with GraphPad Prism Software. […]

[3] = oral administration at therapeutic dose levels; cited from earlier work
[4] = control reaction (1 M Tris-HCl) at 37° C.

T2 sequence (P25092 24-1073): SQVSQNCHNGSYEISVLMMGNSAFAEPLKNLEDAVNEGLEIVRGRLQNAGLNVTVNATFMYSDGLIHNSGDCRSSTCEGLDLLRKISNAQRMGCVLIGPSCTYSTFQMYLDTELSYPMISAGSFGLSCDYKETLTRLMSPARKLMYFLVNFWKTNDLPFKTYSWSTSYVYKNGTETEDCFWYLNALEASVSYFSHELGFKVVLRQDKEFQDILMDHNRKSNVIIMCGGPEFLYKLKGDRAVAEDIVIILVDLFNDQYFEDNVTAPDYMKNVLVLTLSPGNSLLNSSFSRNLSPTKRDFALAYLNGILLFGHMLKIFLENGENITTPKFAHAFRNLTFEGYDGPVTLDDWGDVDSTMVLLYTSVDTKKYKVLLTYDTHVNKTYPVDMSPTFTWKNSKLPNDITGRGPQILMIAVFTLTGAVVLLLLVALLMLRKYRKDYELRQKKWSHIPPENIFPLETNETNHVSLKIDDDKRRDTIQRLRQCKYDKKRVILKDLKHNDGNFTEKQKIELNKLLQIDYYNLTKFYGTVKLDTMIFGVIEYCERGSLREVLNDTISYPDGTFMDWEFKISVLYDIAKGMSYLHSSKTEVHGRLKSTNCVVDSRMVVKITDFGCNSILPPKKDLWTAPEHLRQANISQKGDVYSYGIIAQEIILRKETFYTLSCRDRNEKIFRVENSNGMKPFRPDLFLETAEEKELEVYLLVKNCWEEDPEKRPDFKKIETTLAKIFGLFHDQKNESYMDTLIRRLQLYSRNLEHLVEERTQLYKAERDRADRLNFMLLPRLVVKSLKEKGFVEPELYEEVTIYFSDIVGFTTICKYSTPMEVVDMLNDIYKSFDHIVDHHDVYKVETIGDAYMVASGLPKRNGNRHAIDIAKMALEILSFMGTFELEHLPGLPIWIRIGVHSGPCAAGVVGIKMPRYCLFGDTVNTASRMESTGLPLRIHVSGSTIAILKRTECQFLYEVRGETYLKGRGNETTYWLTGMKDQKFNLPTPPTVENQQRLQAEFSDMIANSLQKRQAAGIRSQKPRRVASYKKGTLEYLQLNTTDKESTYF
T1 sequence (P19111 20-506): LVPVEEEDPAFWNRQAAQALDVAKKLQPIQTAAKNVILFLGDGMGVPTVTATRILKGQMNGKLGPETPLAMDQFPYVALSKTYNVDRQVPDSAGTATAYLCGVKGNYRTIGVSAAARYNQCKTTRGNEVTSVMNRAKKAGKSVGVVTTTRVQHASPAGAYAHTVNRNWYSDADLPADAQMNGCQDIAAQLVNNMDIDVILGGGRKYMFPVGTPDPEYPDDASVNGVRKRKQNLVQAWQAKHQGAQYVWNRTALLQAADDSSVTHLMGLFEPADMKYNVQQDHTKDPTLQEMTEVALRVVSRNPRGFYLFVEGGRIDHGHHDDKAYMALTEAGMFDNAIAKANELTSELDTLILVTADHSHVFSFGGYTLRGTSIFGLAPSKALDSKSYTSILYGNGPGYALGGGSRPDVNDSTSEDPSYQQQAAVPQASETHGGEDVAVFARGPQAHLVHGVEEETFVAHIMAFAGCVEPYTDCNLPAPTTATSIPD

Row | Structure (SMILES) | metabolism in control reaction [1, 4] | degradation rate compared with peptide 2 [1] | other results
1 | CC(C)C[C@@H]1NC(=O)[C@H](CO)NC(=O)[C@@H]2CSSC[C@@H]3NC(=O)[C@H](C)NC(=O)[C@@H]4CCCN4C(=O)[C@H](CC(N)=O)NC(=O)[C@H](CSSC[C@H](N)C(=O)N2)NC(=O)[C@H](CSSC[C@@H](C(=O)O)NC(=O)CNC(=O)[C@H]([C@@H](C)O)NC3=O)NC1=O [Dephospho-Peptide 2, CCSLCCNPACTGC] (H-CCSLCCNPACTGC-OH; disulfide 1-6, 2-10, 5-13 (inferred); N-terminus and C-terminus assumed) | not metabolized | degraded faster | –
2 | CC(C)C[C@@H]1NC(=O)[C@H](COP(=O)(O)O)NC(=O)[C@@H]2CSSC[C@@H]3NC(=O)[C@H](C)NC(=O)[C@@H]4CCCN4C(=O)[C@H](CC(N)=O)NC(=O)[C@H](CSSC[C@H](N)C(=O)N2)NC(=O)[C@H](CSSC[C@@H](C(=O)O)NC(=O)CNC(=O)[C@H]([C@@H](C)O)NC3=O)NC1=O [Peptide 2, CCpSLCCNPACTGC] (H-CC[pS]LCCNPACTGC-OH; disulfide 1-6, 2-10, 5-13 (inferred); N-terminus and C-terminus assumed) | not metabolized | – | formation of metabolite dephospho-peptide 2 in control reaction [1, 4]: no dephospho-peptide 2 was formed
3 | CC(C)C[C@@H]1NC(=O)[C@H](CCC(=O)O)NC(=O)[C@@H]2CSSC[C@@H]3NC(=O)[C@H](C)NC(=O)[C@@H]4CCCN4C(=O)[C@H](CC(N)=O)NC(=O)[C@H](CSSC[C@H](N)C(=O)N2)NC(=O)[C@H](CSSC[C@@H](C(=O)N[C@@H](Cc2ccc(O)cc2)C(=O)O)NC(=O)CNC(=O)[C@H]([C@@H](C)O)NC3=O)NC1=O [Peptide 3, CCELCCNPACTGCY] (H-CCELCCNPACTGCY-OH; disulfide 1-6, 2-10, 5-13 (inferred); N-terminus and C-terminus assumed) | not metabolized | degraded faster | effect of CIP treatment (LC-MS) [2]: not affected; detection of peptide in mouse jejunum fluid ([1]; after 90 minutes, 37° C., 100 μg/mL): not detected
4 | CC(C)C[C@@H]1NC(=O)[C@H](COP(=O)(O)O)NC(=O)[C@@H]2CSSC[C@@H]3NC(=O)[C@H](C)NC(=O)[C@@H]4CCCN4C(=O)[C@H](CC(N)=O)NC(=O)[C@H](CSSC[C@H](NC(=O)[C@H](CC(=O)O)NC(=O)[C@@H](N)CC(=O)O)C(=O)N2)NC(=O)[C@H](CSSC[C@@H](C(=O)N[C@@H](Cc2ccc(O)cc2)C(=O)O)NC(=O)CNC(=O)[C@H]([C@@H](C)O)NC3=O)NC1=O [Peptide 5, DDCCpSLCCNPACTGCY] (H-DDCC[pS]LCCNPACTGCY-OH; disulfide 3-8, 4-12, 7-15 (inferred); N-terminus and C-terminus assumed) | – | – | EC50 (GC-C): 14.7 nM
5 | C[C@@H]1NC(=O)[C@@H]2CCCN2C(=O)[C@H](CC(N)=O)NC(=O)[C@@H]2CSSC[C@H](N)C(=O)N[C@H]3CSSC[C@H](NC1=O)C(=O)N[C@@H]([C@@H](C)O)C(=O)NCC(=O)N[C@H](C(=O)N[C@@H](Cc1ccc(O)cc1)C(=O)O)CSSC[C@H](NC(=O)[C@H](Cc1ccc(O)cc1)NC(=O)[C@H](CCC(=O)O)NC3=O)C(=O)N2 [linaclotide, Linaclotide] (H-CCEYCCNPACTGCY-OH; disulfide 1-6, 2-10, 5-13) | – | – | systemic levels after oral administration [3]: no detectable levels
